What was measured:
[1] = biological target: T1, human Nav1.5 channels stably expressed in HEK 293 cells (Homo sapiens, UniProt Q14524); experiment: PatchXpress 7000 automated patch-clamp, sodium current; format: cell-based; settings: selectivity over Nav1.5
T1 construct: expressed in transfected cells
Source text: (§1) To measure state and use-dependent sodium channel inhibition, test compounds were further characterized in an automated PatchXpress® assay (Molecular Devices). Two voltage-clamp protocols were used. 1) Use-dependent protocol: Cells were held at a membrane potential 20 mV negative to the potential at which ˜50% of the channels are inactivated (V0.5 inact). A train of 30 ms depolarizations to −20 mV was applied to the cells expressing Nav1.7 at a frequency of 10 Hz. […] Data was collected in the absence and presence of drug, and after drug washout. 2) A double-pulse protocol was used to measure inactivated state block. Cells were held at a potential 20 mV negative to V0.5 inact. A 8000 ms pre-pulse 7 mV positive to V0.5 inact was given followed by a hyperpolarizing 2 ms pulse to −120 mV and a 20 ms test pulse to −20 mV. Protocol was applied to cells in the absence, presence of compound and after washout. The temperature of PatchXpress instruments was maintained at 22° C. The following recording solutions were used. Internal solution (mM): 30 CsCl, 5 HEPES, 10 EGTA, 120 CsF, 5 NaF, 2MgCl2, pH=7.3 with CsOH, 324 mosmo. External solution (mM): 120 NMDG, 40 NaCl, 1 KCl, 0.5 MgCl2, 5 HEPES, 2.7 CaCl2, pH=7.5 with NMDG-OH.
(§2) For all electrophysiology experiments, offline analysis was used to correct for current rundown and to determine percent inhibition as a function of drug concentration. IC50 values were determined by fitting to the Hill equation.

[2] = biological target: T2, human Nav1.7 channels stably expressed in HEK 293 cells (Homo sapiens, UniProt Q15858); experiment: as above; format: cell-based; settings: 22° C., read-out: potency for the Nav 1.7 sodium ion channel (as measured by PatchXpress)
T2 construct: expressed in transfected cells
Source text: as §1, §2

T2 sequence (Q15858 whole entry): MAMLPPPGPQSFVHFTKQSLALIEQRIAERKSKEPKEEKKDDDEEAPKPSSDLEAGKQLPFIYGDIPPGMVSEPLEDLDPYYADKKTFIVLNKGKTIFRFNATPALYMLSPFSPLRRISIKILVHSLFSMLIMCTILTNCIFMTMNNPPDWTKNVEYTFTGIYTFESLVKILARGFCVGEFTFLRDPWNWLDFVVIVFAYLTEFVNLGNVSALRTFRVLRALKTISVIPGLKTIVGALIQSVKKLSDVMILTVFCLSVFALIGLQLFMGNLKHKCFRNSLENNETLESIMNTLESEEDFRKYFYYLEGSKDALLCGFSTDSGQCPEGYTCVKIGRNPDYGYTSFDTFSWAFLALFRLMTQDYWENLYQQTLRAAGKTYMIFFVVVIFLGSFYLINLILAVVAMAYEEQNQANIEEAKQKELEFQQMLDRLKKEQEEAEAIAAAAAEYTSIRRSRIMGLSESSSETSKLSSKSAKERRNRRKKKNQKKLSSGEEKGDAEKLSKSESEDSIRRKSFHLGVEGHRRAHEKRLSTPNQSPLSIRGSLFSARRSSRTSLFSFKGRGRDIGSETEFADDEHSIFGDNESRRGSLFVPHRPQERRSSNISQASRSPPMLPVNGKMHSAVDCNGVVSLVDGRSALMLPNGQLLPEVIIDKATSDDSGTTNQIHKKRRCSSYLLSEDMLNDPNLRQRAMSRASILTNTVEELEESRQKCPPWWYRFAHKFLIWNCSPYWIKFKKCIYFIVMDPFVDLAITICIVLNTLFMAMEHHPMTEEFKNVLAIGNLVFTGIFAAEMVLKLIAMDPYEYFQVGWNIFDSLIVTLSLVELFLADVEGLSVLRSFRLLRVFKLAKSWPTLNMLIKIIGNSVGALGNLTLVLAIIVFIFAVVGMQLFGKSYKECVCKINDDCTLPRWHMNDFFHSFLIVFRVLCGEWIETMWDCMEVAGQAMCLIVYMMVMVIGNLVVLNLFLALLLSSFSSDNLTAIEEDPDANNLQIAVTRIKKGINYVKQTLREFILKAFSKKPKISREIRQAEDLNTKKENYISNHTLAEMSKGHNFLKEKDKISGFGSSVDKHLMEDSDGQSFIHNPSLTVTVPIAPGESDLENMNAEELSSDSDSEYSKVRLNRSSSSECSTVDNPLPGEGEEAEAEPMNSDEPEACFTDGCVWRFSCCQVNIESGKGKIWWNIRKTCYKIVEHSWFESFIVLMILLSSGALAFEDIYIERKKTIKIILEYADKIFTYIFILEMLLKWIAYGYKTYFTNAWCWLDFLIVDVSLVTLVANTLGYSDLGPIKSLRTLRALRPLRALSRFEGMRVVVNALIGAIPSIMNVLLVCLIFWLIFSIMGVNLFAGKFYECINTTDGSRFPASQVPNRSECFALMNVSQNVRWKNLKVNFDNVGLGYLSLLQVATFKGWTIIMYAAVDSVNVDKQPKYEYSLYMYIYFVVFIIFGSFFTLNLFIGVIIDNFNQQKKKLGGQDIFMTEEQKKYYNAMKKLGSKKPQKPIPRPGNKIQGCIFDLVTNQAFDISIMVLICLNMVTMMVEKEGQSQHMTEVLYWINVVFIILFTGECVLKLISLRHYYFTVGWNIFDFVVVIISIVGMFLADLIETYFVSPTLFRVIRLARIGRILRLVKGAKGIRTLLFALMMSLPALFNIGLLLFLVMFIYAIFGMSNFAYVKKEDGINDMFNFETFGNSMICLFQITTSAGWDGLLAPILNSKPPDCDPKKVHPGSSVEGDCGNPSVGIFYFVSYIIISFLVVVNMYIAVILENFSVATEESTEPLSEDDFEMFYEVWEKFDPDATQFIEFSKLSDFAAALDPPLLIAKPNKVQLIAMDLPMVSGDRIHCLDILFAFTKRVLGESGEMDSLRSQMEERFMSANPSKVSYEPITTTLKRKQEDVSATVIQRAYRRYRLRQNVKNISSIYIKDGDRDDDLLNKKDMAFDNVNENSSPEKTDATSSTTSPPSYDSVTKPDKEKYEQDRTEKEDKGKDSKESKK
T1 sequence (Q14524 whole entry): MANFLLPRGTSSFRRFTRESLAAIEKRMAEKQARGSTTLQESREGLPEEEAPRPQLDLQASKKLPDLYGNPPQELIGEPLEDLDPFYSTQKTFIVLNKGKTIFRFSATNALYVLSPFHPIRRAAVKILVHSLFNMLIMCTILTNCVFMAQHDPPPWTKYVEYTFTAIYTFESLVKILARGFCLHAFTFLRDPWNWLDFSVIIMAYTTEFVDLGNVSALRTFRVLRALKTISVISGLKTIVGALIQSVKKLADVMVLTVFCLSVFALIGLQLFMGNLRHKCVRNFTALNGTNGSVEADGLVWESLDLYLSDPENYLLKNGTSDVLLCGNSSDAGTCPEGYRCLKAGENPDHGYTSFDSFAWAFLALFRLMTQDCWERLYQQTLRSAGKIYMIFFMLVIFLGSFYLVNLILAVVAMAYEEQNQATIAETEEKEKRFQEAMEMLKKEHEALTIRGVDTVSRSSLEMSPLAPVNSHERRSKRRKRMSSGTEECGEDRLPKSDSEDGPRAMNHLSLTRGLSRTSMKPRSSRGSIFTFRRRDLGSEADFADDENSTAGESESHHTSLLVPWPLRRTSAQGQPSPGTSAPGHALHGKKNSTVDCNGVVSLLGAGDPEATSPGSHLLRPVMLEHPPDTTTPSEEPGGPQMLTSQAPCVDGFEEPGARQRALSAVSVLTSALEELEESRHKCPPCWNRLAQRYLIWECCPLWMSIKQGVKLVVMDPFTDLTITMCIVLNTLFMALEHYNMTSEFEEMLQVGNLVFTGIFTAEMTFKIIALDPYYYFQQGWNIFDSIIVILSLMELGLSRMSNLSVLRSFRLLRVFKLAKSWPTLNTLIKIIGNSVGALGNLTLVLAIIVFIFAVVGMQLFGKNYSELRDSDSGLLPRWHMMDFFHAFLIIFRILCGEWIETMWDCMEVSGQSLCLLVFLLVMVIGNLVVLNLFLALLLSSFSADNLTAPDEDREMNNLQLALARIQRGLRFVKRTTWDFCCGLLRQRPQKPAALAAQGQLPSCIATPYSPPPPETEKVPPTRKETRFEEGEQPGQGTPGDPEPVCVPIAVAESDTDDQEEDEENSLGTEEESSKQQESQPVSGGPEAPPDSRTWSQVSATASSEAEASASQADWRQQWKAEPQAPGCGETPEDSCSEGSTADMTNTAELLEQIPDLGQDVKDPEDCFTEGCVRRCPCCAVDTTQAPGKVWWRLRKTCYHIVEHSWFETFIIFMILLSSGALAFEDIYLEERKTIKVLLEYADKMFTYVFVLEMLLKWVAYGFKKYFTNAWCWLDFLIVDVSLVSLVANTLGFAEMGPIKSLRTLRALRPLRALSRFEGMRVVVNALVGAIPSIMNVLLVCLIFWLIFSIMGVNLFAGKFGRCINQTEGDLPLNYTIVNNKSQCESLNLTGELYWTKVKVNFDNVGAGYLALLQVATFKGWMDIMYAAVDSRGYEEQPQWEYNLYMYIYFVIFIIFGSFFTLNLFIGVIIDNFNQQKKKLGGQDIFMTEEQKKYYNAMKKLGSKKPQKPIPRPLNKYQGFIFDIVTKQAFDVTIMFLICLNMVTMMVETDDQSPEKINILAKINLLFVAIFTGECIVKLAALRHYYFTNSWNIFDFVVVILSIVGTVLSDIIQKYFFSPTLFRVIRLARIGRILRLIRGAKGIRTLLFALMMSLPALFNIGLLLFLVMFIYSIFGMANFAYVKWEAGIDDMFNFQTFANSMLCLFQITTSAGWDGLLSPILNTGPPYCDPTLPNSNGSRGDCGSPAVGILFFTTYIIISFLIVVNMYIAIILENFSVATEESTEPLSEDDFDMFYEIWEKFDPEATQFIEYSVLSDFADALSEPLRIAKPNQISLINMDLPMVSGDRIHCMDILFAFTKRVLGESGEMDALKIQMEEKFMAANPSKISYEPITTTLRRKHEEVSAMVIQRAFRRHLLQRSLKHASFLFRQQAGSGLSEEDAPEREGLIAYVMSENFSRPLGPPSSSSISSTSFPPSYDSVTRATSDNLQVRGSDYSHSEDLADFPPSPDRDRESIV

Row | SMILES | ratio of Nav 1.5:Nav 1.7 potency, determined by PatchXpress measurement [1] | IC50 [2]
1 | CC(c1cccc2c1CNCC2)n1c(=O)oc2cc(S(=O)(=O)Nc3ncns3)c(Cl)cc21 (racemic) [Compound 34-7, (+/−)-5-chloro-2-oxo-3-[1-(1,2,3,4-tetrahydroisoquinolin-8-yl)ethyl]-N-1,2,4-thiadiazol-5-yl-2,3-dihydro-1,3-benzoxazole-6-sulfonamide] | 129 | 565 nM
2 | CC(c1cccc2c1CN(S(C)(=O)=O)CC2)n1c(=O)oc2cc(S(=O)(=O)Nc3ncns3)c(Cl)cc21 (racemic) [Compound 36-2, (+/−)-5-chloro-3-{1-[2-(methylsulfonyl)-1,2,3,4-tetrahydroisoquinolin-8-yl]ethyl}-2-oxo-N-1,2,4-thiadiazol-5-yl-2,3-dihydro-1,3-benzoxazole-6-sulfonamide] | 13 | 334 nM
3 | O=c1oc2cc(S(=O)(=O)Nc3nccs3)c(F)cc2n1Cc1cccc2c1CNCC2F (racemic) [Compound 43-26, (+/-)-5-fluoro-3-[(4-fluoro-1,2,3,4-tetrahydroisoquinolin-8-yl)methyl]-2-oxo-N-1,3-thiazol-2-yl-2,3-dihydro-1,3-benzoxazole-6-sulfonamide] | 150 | 141 nM
4 | COC(=O)NC1CCc2cccc(Cn3c(=O)oc4cc(S(=O)(=O)Nc5ncns5)c(F)cc43)c2C1 (single isomer, unassigned) [Compound 23-1, methyl (8-((6-(N-(1,2,4-thiadiazol-5-yl)sulfamoyl)-5-fluoro-2-oxobenzo[d]oxazol-3(2H)-yl)methyl)-1,2,3,4-tetrahydronaphthalen-2-yl)carbamate] | 71 | 122 nM
5 | CC(=O)OCC(=O)NC1CCc2cccc(Cn3c(=O)oc4cc(S(=O)(=O)Nc5ncns5)c(F)cc43)c2C1 (single isomer, unassigned) [Compound 23-4, (R or S)-2-[(8-{[5-fluoro-2-oxo-6-(1,2,4-thiadiazol-5-ylsulfamoyl)-1,3-benzoxazol-3(2H)-yl]methyl}-1,2,3,4-tetrahydronaphthalen-2-yl)amino]-2-oxoethyl acetate] | 97 | 310 nM
6 | O=c1oc2cc(S(=O)(=O)Nc3ncns3)c(F)cc2n1Cc1cccc2c1CC(N1CCS(=O)(=O)CC1)CC2 (single isomer, unassigned) [Compound 23-6, (R or S)-3-{[7-(1,1-dioxidothiomorpholin-4-yl)-5,6,7,8-tetrahydronaphthalen-1-yl]methyl}-5-fluoro-2-oxo-N-1,2,4-thiadiazol-5-yl-2,3-dihydro-1,3-benzoxazole-6-sulfonamide] | 146 | 206 nM
7 | NC1CCc2cccc(Cn3c(=O)oc4cc(S(=O)(=O)Nc5ncns5)ccc43)c2C1 (single isomer, unassigned) [Compound 23-10, (R or S)-3-[(7-amino-5,6,7,8-tetrahydronaphthalen-1-yl)methyl]-2-oxo-N-1,2,4-thiadiazol-5-yl-2,3-dihydro-1,3-benzoxazole-6-sulfonamide] | 167 | 179 nM
8 | NC1CCc2cccc(Cn3c(=O)oc4cc(S(=O)(=O)Nc5ncns5)ccc43)c2C1 (single isomer, unassigned) [Compound 23-14, (S or R)-3-[(7-amino-5,6,7,8-tetrahydronaphthalen-1-yl)methyl]-2-oxo-N-1,2,4-thiadiazol-5-yl-2,3-dihydro-1,3-benzoxazole-6-sulfonamide] | 393 | 75 nM
9 | C[C@H](c1cccc2c1CC(N)CC2)n1c(=O)oc2cc(S(=O)(=O)Nc3ncns3)c(F)cc21 (single isomer, unassigned) [Compound 23-25, (R or S)-3-[(1R)-1-(7-amino-5,6,7,8-tetrahydronaphthalen-1-yl)ethyl]-5-fluoro-2-oxo-N-1,2,4-thiadiazol-5-yl-2,3-dihydro-1,3-benzoxazole-6-sulfonamide] | 203 | 15 nM
10 | NC1CCc2cccc(Cn3c(=O)oc4cc(S(=O)(=O)Nc5ncns5)c(F)cc43)c2C1 (single isomer, unassigned) [Compound 23-27, (S or R)-3-[(7-amino-5,6,7,8-tetrahydronaphthalen-1-yl)methyl]-5-fluoro-2-oxo-N-1,2,4-thiadiazol-5-yl-2,3-dihydro-1,3-benzoxazole-6-sulfonamide] | 29 | 6 nM
11 | O=c1oc2cc(S(=O)(=O)Nc3nccs3)c(F)cc2n1Cc1cccc2c1CNCC2F (single isomer, unassigned) [Compound 43-27, (R or S)-5-fluoro-3-[(4-fluoro-1,2,3,4-tetrahydroisoquinolin-8-yl)methyl]-2-oxo-N-1,3-thiazol-2-yl-2,3-dihydro-1,3-benzoxazole-6-sulfonamide] | 282 | 106 nM
12 | O=c1oc2cc(S(=O)(=O)Nc3nccs3)c(F)cc2n1Cc1cccc2c1CNCC2F (single isomer, unassigned) [Compound 43-28, (S or R)-5-fluoro-3-[(4-fluoro-1,2,3,4-tetrahydroisoquinolin-8-yl)methyl]-2-oxo-N-1,3-thiazol-2-yl-2,3-dihydro-1,3-benzoxazole-6-sulfonamide] | 684 | 120 nM
13 | O=c1oc2cc(S(=O)(=O)Nc3ncns3)c(F)cc2n1Cc1ccccc1 [Compound 11-7, 3-benzyl-5-fluoro-2-oxo-N-1,2,4-thiadiazol-5-yl-2,3-dihydro-1,3-benzoxazole-6-sulfonamide] | 55 | 545 nM
14 | O=c1oc2cc(S(=O)(=O)Nc3ncns3)c(F)cc2n1C[C@H]1C[C@@H]1I [Compound 11-9, 5-fluoro-3-{[(1R,2S)-2-iodocyclopropyl]methyl}-2-oxo-N-1,2,4-thiadiazol-5-yl-2,3-dihydro-1,3-benzoxazole-6-sulfonamide] | 56 | 301 nM
15 | O=c1oc2cc(S(=O)(=O)Nc3ncns3)c(F)cc2n1CC1CC1c1ccccc1 (stereo not shown) [Compound 11-10, 5-fluoro-2-oxo-3-[(2-phenylcyclopropyl)methyl]-N-1,2,4-thiadiazol-5-yl-2,3-dihydro-1,3-benzoxazole-6-sulfonamide] | 123 | 44 nM
16 | Cn1cc2cccc(Cn3c(=O)oc4cc(S(=O)(=O)Nc5ncns5)c(F)cc43)c2n1 [Compound 11-11, 5-fluoro-3-[(2-methyl-2H-indazol-7-yl)methyl]-2-oxo-N-1,2,4-thiadiazol-5-yl-2,3-dihydro-1,3-benzoxazole-6-sulfonamide] | 81 | 490 nM
17 | O=c1oc2cc(S(=O)(=O)Nc3ncns3)c(F)cc2n1Cc1cccc2cncn12 [Compound 11-12, 5-fluoro-3-(imidazo[1,5-a]pyridin-5-ylmethyl)-2-oxo-N-1,2,4-thiadiazol-5-yl-2,3-dihydro-1,3-benzoxazole-6-sulfonamide] | 368 | 81 nM

From US9273040B2 (Merck Sharp & Dohme Corp., priority 2011, dated 2016)
